Results taken from PMC2191741 (The Journal of Experimental Medicine, 1994).

B1: mAb II-481: IgG-2b mouse mAb directed at gE of HSV-1 (antibody, V domains shown)
VH: GILQPSQTLSLTCSFSGFSLTTYGIGVGWIRQPSGKGLEWLAHIWWNDNKFYNTVLKSRLTISRDTSNNQVFLRIASMDTADTATYYCARMRDGAWFAYWGQGTLVTVSA
VL: SLAVSAGEKVTMTCKSSQSVLYSSDHKNYLAWYQQKPGQSPKLLIYWASTRESGVPDRFTGSGSGTDFTLTINNVQTEDLAVYFCHQYLSSFTFGGGTKLEIQ

Assays:
[1] = tested on: human polyclonal IgM RF binding to mAb II-481; settings: text summary across the individual polyclonal IgM RFs tested
[2] = tested on: gE of HSV-1; assay: ELISA of hybridoma supernatants with isolated gE and whole HSV-1; type: binding; settings: hybridoma supernatant; isolated gE 5 ug/ml

Molecule | inhibition of RF binding to mAb II-481 by single inhibitor [1] | reactivity with isolated gE and whole HSV-1 by ELISA [2]
HIWWNDN | 80-100% | 
CIKVAVS [reference compound] | No inhibition | 
SGVPDRF | 62-90% | 
B1 | complete inhibition | strong anti-gE specificity
